Experimental data published in patent publication US6706727B1, “Macrolides” (Novartis AG, priority 2002, dated 2004).
pIC50: −log10 of the molar value.

What follows are molecules tested on CD4+ antigen-specific human helper T-cell clone (TCC) (assay: Antigen-specific stimulation of the helper T-cell clone (TCC) by monocyte-derived dendritic cells, T-cell proliferation (3H-thymidine)). Conditions: Dpt-pulsed M-DC, M-DC/T-cell ratio 1/50, 4 day culture.
Format: cell-based
Description: This activity is further evidenced in additional testing with the above helper T-cell clone and monocyte-derived dendritic cells:
The CD4^+ antigen-specific human helper T-cell clone (TCC) is established by limiting dilution culture (Van Reijsen T. C. et al, J. Allergy Clin. Immunol. 90 [1992] 184-193). The TCC recognizes a peptide derived from the major allergen Der p1 of the house dust mite Dermatophagoides pteronyssinus (Dpt) in association with the MHC class II restriction molecule HLA-DPw4 (Baselmnns P. J. et al., Human Immunol. 61 [2000] 789-798). To obtain sufficient cell numbers for assay purposes, the TCC is expanded in vitro by activation with immobilized anti-CD3 monoclonal antibody (Leu4, Becton Dickinson, San Jose, Calif., USA) and culture in complete medium supplemented with rIL-2 and rhIL-4 (50 U/ml each) (Van Reijsen et al., supra).
Human monocyte-derived dendritic cells (M-DC) are generated from purified monocytes by culturing in RPMI 1640 culture medium at a cell density of 7×10^5 cells/ml. The culture medium is supplemented with 15% FCS and rh-GM-CSF (300 U/ml) and rh-IL-4 (100 U/ml). At day 7 of culture, 90-95% of the cells express the phenotype of M-DC as verified by flow cytometry and they are used for antigen-specific stimulation of the TCC, which is used at least 14 days after the last challenge by antigen or anti-CD3 mAb to ensure a resting state of the cells. For antigen-specific stimulation, the M-DC are incubated overnight (at least 12 h) in culture medium containing 50 μ/ml of the extract of Dpt (ARTU Biologicals NV, Lelystad, The Netherlands). The content of the major allergen Der p1 used is about 18.5 μg/mg of Dpt extract. The M-DC are washed twice and 50 μl aliquots of the final number of M-DC are added to 5×10^4 T-cells per well in 100 μl medium, giving a M-DC/T-cell ratio of 1/50. Immediately thereafter, 50 μl aliquots of a four-fold final concentration of test compound are added. Each sample is tested in quadruplicate. The test compound is dissolved in ethanol to provide a stock solution of 1 mM and diluted 1/1000 in the complete culture medium that is also used to prepare the final test compound dilution. T-cell proliferation is determined by pulsing with 1 μCi/20 μl/well of (methyl-)^3H-thymidine (Amersham, U.K) during the final 16 hours of a 4 day culture period.
For CC[C@H]1C/C(C)=C/[C@@H](CC)C(=O)C[C@H](O)[C@@H](C)[C@@H](/C(C)=C/[C@@H]2CC[C@@H](O)[C@H](OC)C2)OC(=O)[C@@H]2CCCCN2C(=O)C(=O)[C@]2(O)O[C@H]([C@@H](OC)C1)[C@@H](OC)C[C@H]2C [21-ethyl-ascomycin], the pIC50 was 9.48.
Molecule CC[C@@H]1C[C@H](OC)[C@@H]2O[C@@]1(O)C(=O)C(=O)N1CCCC[C@H]1C(=O)O[C@H](/C(C)=C/[C@@H]1CC[C@@H](O)[C@H](OC)C1)[C@H](C)[C@@H](O)CC(=O)[C@H](CC)/C=C(\C)C[C@H](C)C[C@@H]2OC [27-ethyl-ascomycin] has a pIC50 of 9.06.
In the case of CC/C1=C\[C@@H](CC)C(=O)C[C@H](O)[C@@H](C)[C@@H](/C(C)=C/[C@@H]2CC[C@H](Cl)[C@H](OC)C2)OC(=O)[C@@H]2CCCCN2C(=O)C(=O)[C@]2(O)O[C@H]([C@@H](OC)C[C@@H](C)C1)[C@@H](OC)C[C@H]2C [Compound 19-ethyl-ASM], the pIC50 was 8.17.
Work on CC[C@H]1C/C(C)=C/[C@@H](CC)C(=O)C[C@H](O)[C@@H](C)[C@@H](/C(C)=C/[C@@H]2CC[C@H](Cl)[C@H](OC)C2)OC(=O)[C@@H]2CCCCN2C(=O)C(=O)[C@]2(O)O[C@H]([C@@H](OC)C1)[C@@H](OC)C[C@H]2C [Compound 21-ethyl-ASM] yielded a pIC50 of 8.80.
With CC[C@@H]1C[C@H](OC)[C@@H]2O[C@@]1(O)C(=O)C(=O)N1CCCC[C@H]1C(=O)O[C@H](/C(C)=C/[C@@H]1CC[C@H](Cl)[C@H](OC)C1)[C@H](C)[C@@H](O)CC(=O)[C@H](CC)/C=C(\C)C[C@H](C)C[C@@H]2OC [Compound 27-ethyl-ASM] the pIC50 was 8.34.
